Results taken from patent US20250066319A1, “NOVEL ACID ADDITION SALT AND CRYSTALLINE FORM OF (2R, 3S)-2-(3-(4,5-DICHLORO-1H-BENZO[d]IMIDAZOL-1-YL)PROPYL)PIPERIDIN-3-OL” (Daewoong Pharmaceutical Co., Ltd., priority 2021, published 2025).
Structures can show the parent of a compound that is named as a salt.

How the values were obtained:
Type in all cases: physicochemical
[1] = Hygroscopicity test (weight change in desiccators of constant relative humidity); design: scale not given here; settings: room temperature, one day
Protocol: The hygroscopicity tests of the acid addition salts prepared in Examples 1-1 to 1-6 and Comparative Example 1 were performed.
After one day, the change in weight was measured, then transferred to another desiccator and the previous experiment was repeated. At this time, for sorption analysis, the weight change was measured by moving the sample from a low-humidity desiccator to a high-humidity desiccator, and for desorption analysis, the weight change was measured by transferring the sample from a high-humidity desiccator with high humidity to a low-humidity desiccator.

[2] = Stability confirmation: severe test with respect to moisture, HPLC peak area of main component; settings: 93% RH, open beaker
Protocol: (§1) The acid addition salts prepared in some Examples and Comparative Examples were subjected to stability tests against high temperature and high humidity.
And, the severe tests with respect to moisture were performed by placing 50 mg of a sample in a 10 ml beaker, and measuring the content of impurities using HPLC (Azura, KNAUER, P6.1 1 L, DAD 6.1 L) after 1 week, 2 weeks, 4 weeks, and 8 weeks while storing the sample in a 93% RH desiccator in a state that the lid was not closed so that the sample has sufficient contact with the moisture in the air.
(§2) At a fixed time after the start of the test, one vial or beaker was taken out from each time point (the number of samples per test: n=1), and impurities were analyzed using HPLC under the conditions shown in Table 3 below. Then, the peak area was determined through integration for all the detected peaks, and then the relative peak area (%) for the main component was calculated and expressed as an average value.

[3] = Stability confirmation: severe test with respect to temperature, HPLC peak area of main component; settings: 60° C., relative humidity less than 10%
Protocol: as §1
Specifically, the severe tests with respect to temperature were performed by placing 50 mg of a sample in a vial, closing the lid, and then measuring the content of impurities using HPLC (Azura, KNAUER, P6.1 1 L, DAD 6.1 L) after 1 week, 2 weeks, 4 weeks, and 8 weeks while storing in a chamber at 60° C. and a relative humidity of less than 10%.
as §2

[4] = Differential scanning calorimetry analysis after severe test with respect to temperature; settings: high temperature condition (60° C.), 1 week and 8 weeks; Dihydrochloride
Protocol: For (2R,3S)-2-(3-(4,5-dichloro-1H-benzo[d]imidazol-1-yl)propyl)piperidin-3-ol monohydrochloride prepared in Example 1-1 and (2R,3S)-2-(3-(4,5-dichloro-1H-benzo[d]imidazol-1-yl)propyl)piperidin-3-ol dihydrochloride prepared in Comparative Example 1, each beaker was taken out 1 week and 8 weeks after the start of the test from the desiccator where the severe tests with respect to temperature were in progress, and the differential scanning calorimetry analysis was performed. At this time, the differential scanning calorimetry analysis was performed using a differential scanning calorimeter (DSC Q20, manufactured by TA Instruments) in a tightly closed pan under nitrogen purge at a scan rate of 10° C./min while raising the temperature from 20° C. to 300° C.

Compound | weight change, desorption ([1]; 11% RH) | weight change, desorption ([1]; 33% RH) | weight change, desorption ([1]; 54% RH) | weight change, desorption ([1]; 75% RH) | weight change, sorption ([1]; 11% RH) | weight change, sorption ([1]; 33% RH) | weight change, sorption ([1]; 54% RH) | weight change, sorption ([1]; 75% RH) | weight change, sorption ([1]; 93% RH) | relative peak area for the main component (HPLC) ([2]; after 1 week) | relative peak area for the main component (HPLC) ([2]; after 2 weeks) | relative peak area for the main component (HPLC) ([2]; after 4 weeks) | relative peak area for the main component (HPLC) ([2]; after 8 weeks) | relative peak area for the main component (HPLC) ([2]; initial) | relative peak area for the main component (HPLC) ([3]; after 1 week) | relative peak area for the main component (HPLC) ([3]; after 2 weeks) | relative peak area for the main component (HPLC) ([3]; after 4 weeks) | relative peak area for the main component (HPLC) ([3]; after 8 weeks) | relative peak area for the main component (HPLC) ([3]; initial) | other results
O[C@H]1CCCN[C@@H]1CCCn1cnc2c(Cl)c(Cl)ccc21 [Example 1-4, (2R,3S)-2-(3-(4,5-dichloro-1H-benzo[d]imidazol-1-yl)propyl)piperidin-3-ol Hemi-Oxalate] | 101.0 | 101.0 | 101.9 | 103.2 | 100 | 101.0 | 101.6 | 101.9 | 105.4 | – | – | – | – | – | – | – | – | – | – | –
O[C@H]1CCCN[C@@H]1CCCn1cnc2c(Cl)c(Cl)ccc21 [Comparative Example 1, (2R,3S)-2-(3-(4,5-dichloro-1H-benzo[d]imidazol-1-yl)propyl)piperidin-3-ol Dihydrochloride, reference compound] | – | – | – | – | – | – | – | – | – | – | – | – | – | – | – | – | – | – | – | weight change, desorption ([1]; 11% RH, Dihydrochloride): 102.9; weight change, desorption ([1]; 33% RH, Dihydrochloride): 103.9; weight change, desorption ([1]; 54% RH, Dihydrochloride): 104.7; weight change, desorption ([1]; 75% RH, Dihydrochloride): 105.4; weight change, sorption ([1]; 33% RH, Dihydrochloride): 100.9; weight change, sorption ([1]; 54% RH, Dihydrochloride): 108; weight change, sorption ([1]; 75% RH, Dihydrochloride): 105.4; weight change, sorption ([1]; 93% RH, Dihydrochloride): 128; relative peak area for the main component (HPLC) ([2]; after 1 week, Dihydrochloride): 99.7%; relative peak area for the main component (HPLC) ([2]; after 2 weeks, Dihydrochloride): 99.7%; relative peak area for the main component (HPLC) ([2]; after 4 weeks, Dihydrochloride): 99.7%; relative peak area for the main component (HPLC) ([2]; after 8 weeks, Dihydrochloride): 99.7%; relative peak area for the main component (HPLC) ([2]; initial, Dihydrochloride): 99.6%; relative peak area for the main component (HPLC) ([3]; after 1 week, Dihydrochloride): 99.7%; relative peak area for the main component (HPLC) ([3]; after 2 weeks, Dihydrochloride): 99.7%; relative peak area for the main component (HPLC) ([3]; after 4 weeks, Dihydrochloride): 99.8%; relative peak area for the main component (HPLC) ([3]; after 8 weeks, Dihydrochloride): 99.7%; relative peak area for the main component (HPLC) ([3]; initial, Dihydrochloride): 99.6%; change in differential scanning calorimetry analysis pattern [4]: shows a change in the differential scanning calorimetry analysis pattern
O[C@H]1CCCN[C@@H]1CCCn1cnc2c(Cl)c(Cl)ccc21 [Example 1-2, (2R,3S)-2-(3-(4,5-dichloro-1H-benzo[d]imidazol-1-yl)propyl)piperidin-3-ol Dioxalate I] | 100 | 101.6 | 102 | 102.9 | 100 | 101.1 | 101.8 | 102.9 | 105.6 | 99.3% | 99.7% | 99.8% | 99.8% | 99.8% | 99.9% | 99.8% | 99.7% | 99.8% | 99.8% | –
(2R,3S)-2-(3-(4,5-dichloro-1H-benzo[d]imidazol-1-yl)propyl)piperidin-3-ol Dioxalate II [Example 1-3] | 100 | 100 | 100.2 | 100.8 | 100 | 100 | 100 | 101.3 | 101.3 | 99.7% | 99.8% | 99.9% | 99.9% | 99.8% | 99.9% | 99.8% | 99.8% | 99.9% | 99.8% | –
O[C@H]1CCCN[C@@H]1CCCn1cnc2c(Cl)c(Cl)ccc21 [Example 1-5, (2R,3S)-2-(3-(4,5-dichloro-1H-benzo[d]imidazol-1-yl)propyl)piperidin-3-ol Hemi-Maleate] | 99.5 | 99.8 | 99.8 | 100.5 | 100 | 100 | 100.7 | 100.9 | 101.6 | – | 99.8% | 99.8% | 99.9% | 99.8% | – | 99.8% | 99.7% | 99.9% | 99.8% | –
